# Reference: PMC10379611 (International Journal of Molecular Sciences, 2023)
# Entries after “also recorded” stand apart in the source; their conditions may differ.
# Key:
# OATP2B1 = target: T1, OATP2B1 (Homo sapiens, UniProt O94956); experiment: OATP2B1 uptake assay (pyranine) in overexpressing A431 cells; type: cell-based; conditions: for IC50: pyranine substrate, A431 cells, pH 5.5, read-out: estimated IC50, OATP2B1
# T1 construct: expressed in transfected cells; host or cells: A431
# T1 sequence (O94956 1-709): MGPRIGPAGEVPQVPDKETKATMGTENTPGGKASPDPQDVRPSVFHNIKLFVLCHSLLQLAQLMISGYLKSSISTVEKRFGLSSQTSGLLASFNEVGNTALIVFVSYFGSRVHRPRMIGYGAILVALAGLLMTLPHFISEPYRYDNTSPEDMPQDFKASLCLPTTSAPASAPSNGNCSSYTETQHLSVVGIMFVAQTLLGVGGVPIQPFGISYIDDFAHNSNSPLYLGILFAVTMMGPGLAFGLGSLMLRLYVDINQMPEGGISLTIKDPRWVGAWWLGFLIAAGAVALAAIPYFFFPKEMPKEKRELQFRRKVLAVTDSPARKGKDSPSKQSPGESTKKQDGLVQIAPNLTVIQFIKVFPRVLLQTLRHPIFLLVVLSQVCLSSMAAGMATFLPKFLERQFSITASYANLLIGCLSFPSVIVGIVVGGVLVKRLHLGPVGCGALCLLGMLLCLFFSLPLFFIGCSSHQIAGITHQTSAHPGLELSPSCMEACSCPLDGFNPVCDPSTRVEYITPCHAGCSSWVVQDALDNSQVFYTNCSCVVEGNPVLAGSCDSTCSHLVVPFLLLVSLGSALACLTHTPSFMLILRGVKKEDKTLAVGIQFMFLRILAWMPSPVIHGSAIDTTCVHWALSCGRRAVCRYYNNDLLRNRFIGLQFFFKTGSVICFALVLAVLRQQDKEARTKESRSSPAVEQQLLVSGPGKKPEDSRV
# Experimental: To study the function of OATPs, we used A431 cells overexpressing OATP1A2, OATP1B1, OATP1B3, or OATP2B1 and mock-transfected A431 cells, generated as previously described, as controls. […] Briefly, OATP-overexpressing A431 cells and mock-transfected A431 cells were seeded on 96-well plates (8 × 10^4 cells/well).
# ABCB1 = ABCB1 (Homo sapiens, UniProt P08183); experiment: ABCB1 vesicular transport (NMQ), HEK293 inverted membrane vesicles; conditions: for effect on ABCB1 NMQ vesicular transport: up to 200 μM
# ABCB1, sequence (P08183 whole entry): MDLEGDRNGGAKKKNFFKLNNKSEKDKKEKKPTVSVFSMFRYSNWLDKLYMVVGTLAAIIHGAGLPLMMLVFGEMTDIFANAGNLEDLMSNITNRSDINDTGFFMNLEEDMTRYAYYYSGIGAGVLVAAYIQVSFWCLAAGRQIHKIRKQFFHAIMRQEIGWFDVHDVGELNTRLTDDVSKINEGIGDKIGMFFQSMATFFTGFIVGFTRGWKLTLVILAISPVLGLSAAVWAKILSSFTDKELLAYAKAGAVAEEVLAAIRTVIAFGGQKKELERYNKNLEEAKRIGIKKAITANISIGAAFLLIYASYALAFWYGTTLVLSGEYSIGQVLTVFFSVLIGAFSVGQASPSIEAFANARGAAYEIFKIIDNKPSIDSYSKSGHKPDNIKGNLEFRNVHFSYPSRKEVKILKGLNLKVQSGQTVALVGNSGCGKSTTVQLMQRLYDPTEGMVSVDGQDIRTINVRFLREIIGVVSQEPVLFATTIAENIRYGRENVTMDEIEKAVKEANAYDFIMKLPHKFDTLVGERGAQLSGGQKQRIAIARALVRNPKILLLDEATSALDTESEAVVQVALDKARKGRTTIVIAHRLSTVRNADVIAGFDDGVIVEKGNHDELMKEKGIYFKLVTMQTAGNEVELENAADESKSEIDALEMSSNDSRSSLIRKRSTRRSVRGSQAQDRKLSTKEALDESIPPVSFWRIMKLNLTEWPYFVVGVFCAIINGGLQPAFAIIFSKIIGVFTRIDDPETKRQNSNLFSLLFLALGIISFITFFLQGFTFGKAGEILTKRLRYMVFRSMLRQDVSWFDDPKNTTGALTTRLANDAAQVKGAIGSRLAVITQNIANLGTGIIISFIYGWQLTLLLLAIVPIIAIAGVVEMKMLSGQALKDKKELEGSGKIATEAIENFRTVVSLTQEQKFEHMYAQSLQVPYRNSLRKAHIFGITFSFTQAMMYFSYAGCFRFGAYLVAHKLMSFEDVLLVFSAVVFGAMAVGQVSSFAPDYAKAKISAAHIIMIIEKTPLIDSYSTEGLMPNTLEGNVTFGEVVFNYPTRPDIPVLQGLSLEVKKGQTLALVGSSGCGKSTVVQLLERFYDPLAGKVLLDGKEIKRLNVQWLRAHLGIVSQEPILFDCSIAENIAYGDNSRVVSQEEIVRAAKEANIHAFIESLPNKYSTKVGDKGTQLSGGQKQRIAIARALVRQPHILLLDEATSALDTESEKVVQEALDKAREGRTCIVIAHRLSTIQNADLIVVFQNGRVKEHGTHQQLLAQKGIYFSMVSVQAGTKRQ
# ABCG2 = target: T2, ABCG2 (Homo sapiens, UniProt Q9UNQ0); experiment: ABCG2 vesicular transport (lucifer yellow), HEK293 inverted membrane vesicles; conditions: up to 200 μM
# T2 sequence (Q9UNQ0 1-655): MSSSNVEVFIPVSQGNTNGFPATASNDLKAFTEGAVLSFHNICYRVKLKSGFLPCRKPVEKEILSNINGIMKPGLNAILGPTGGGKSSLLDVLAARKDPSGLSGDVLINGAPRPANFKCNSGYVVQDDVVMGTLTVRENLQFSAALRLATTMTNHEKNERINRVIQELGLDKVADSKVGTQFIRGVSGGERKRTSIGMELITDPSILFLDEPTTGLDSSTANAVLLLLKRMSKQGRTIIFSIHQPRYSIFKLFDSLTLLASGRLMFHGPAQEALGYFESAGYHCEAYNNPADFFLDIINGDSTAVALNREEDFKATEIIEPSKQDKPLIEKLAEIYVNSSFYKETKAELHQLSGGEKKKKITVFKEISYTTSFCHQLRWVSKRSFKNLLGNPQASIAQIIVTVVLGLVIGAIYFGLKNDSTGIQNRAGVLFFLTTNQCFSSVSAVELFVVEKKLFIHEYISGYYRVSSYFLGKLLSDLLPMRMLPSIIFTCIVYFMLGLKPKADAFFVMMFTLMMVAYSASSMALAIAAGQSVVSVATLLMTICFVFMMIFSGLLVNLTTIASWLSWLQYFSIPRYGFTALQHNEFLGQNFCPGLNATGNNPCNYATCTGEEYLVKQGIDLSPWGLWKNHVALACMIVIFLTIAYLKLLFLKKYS
# Experimental: ABCB1, ABCG2, and ABCC4 HEK293 membrane vesicles were prepared by Solvo Biotechnology, Budapest. The total protein content of membrane vesicle preparations was determined using the Lowry quantitation method and 30 µg (ABCG2) or 50 µg (ABCB1 and ABCC4) total protein/sample was used for the measurements. For ABCG2 vesicular transport, the fluorescent probe Lucifer yellow (LY) was present in the mixture at 5 μM final concentration. […] Uptake of the probe substrates into the inverted membrane vesicles was measured at 37 °C (ABCG2, ABCB1) or at 32 °C (ABCC4) for 10 min (ABCG2), 5 min (ABCB1), or 1.5 min (ABCC4) in the presence or absence of 4 mM Mg-ATP, in 75 μL final volume of the media (0.04 M MOPS-TRIS pH 7.2, 56 mM KCl, 6 mM MgCl2). The known reference inhibitors of the transporters (1 µM Ko143 for ABCG2, 50 µM Verapamil for ABCB1, and 150 µM MK571 for ABCC4) served as controls. Each test compound was dissolved in DMSO and a 0.75 µL volume was added to the samples. A DMSO solvent control was used in each experiment. The transport was stopped by the addition of ice-cold wash buffer to the samples, then rapidly filtered (MSFBN6B, Millipore, Burlington, MA, USA). Filters were washed with ice-cold wash buffer (0.04 M MOPS-TRIS pH 7.2, 70 mM KCl). For LY, vesicles retained on the filters were dissolved in 10% SDS and transferred into a 96-well microplate. After the addition of DMSO as a stabilizer, fluorescence was measured using a plate reader at 427/535 nm (Victor X3 Enspire Perkin-Elmer, Waltham, MA, USA). When radiolabeled compounds were used as substrates, radioactivity retained on the filter was measured by liquid scintillation counting in Optiphase HiSafe liquid (Perkin Elmer MicroBeta2 liquid scintillation counter, Perkin Elmer, Waltham, MA, USA). ATP-dependent transport was calculated by subtracting the values obtained in the presence of AMP from those obtained in the presence of ATP.
Structure (SMILES),"maximum inhibition of OATP2B1 (OATP2B1; at 200 μM, pyranine)",IC50 (OATP2B1),effect on ABCB1 NMQ vesicular transport (ABCB1),effect on ABCG2 lucifer yellow vesicular transport (ABCG2),inhibition of OATP2B1 by Nirmatrelvir alone (OATP2B1; at 20 μM),additional effect of Nirmatrelvir on ABCB1 inhibition by Ritonavir (ABCB1; NIR in combination with RIT),"inhibition at 10 min, 200 µM (OATP2B1; human, A431 cells overexpressing OATP2B1, pH 5.5, probe pyranine (20 μM), at 200 μM, pyranine, read-out: maximum inhibition of OATP2B1)"
O=c1nc(NO)ccn1[C@@H]1O[C@H](CO)[C@@H](O)[C@H]1O [EIDD-1931],20–40%,> 200 µM,neither the function of ABCB1 nor that of ABCG2 was altered,neither the function of ABCB1 nor that of ABCG2 was altered,–,–,–
CC(C)(C)[C@H](NC(=O)C(F)(F)F)C(=O)N1C[C@H]2[C@@H]([C@H]1C(=O)N[C@H](C#N)C[C@@H]1CCNC1=O)C2(C)C [Nirmatrelvir],–,–,moderate inhibitory effect; also recorded: only a weak inhibitory effect,not affected; also recorded: negligible effect,only a minor inhibitory effect,no additional effect,–
"CC(C)C(=O)OC[C@H]1O[C@@H](n2ccc(NO)nc2=O)[C@H](O)[C@@H]1O [EIDD-2801, Molnupiravir]",–,> 200 µM,neither the function of ABCB1 nor that of ABCG2 was altered,neither the function of ABCB1 nor that of ABCG2 was altered,–,–,20 to 40%
